Measurements taken from ChEMBL document CHEMBL1153202, “Optimization of piperidyl-ureas as inhibitors of soluble epoxide hydrolase” (Bioorg Med Chem Lett, 2010).
Converted amounts (≈) assume the structure as drawn.

What was measured:
[1] = Solubility of the compound; type: physicochemical
[2] = Plasma concentration in Sprague-Dawley rat at 5 mg/kg, po after 4 hrs by LC-MS/MS analysis; type: ADME, organism-based; design: dose 5 mg/kg, route oral
[3] = Plasma concentration in Sprague-Dawley rat at 30 mg/kg, po after 4 hrs by LC-MS/MS analysis; type: ADME, organism-based; design: dose 30 mg/kg, route oral
[4] = Plasma concentration in Sprague-Dawley rat at 5 mg/kg, po after 1 hr by LC-MS/MS analysis; type: ADME, organism-based; design: dose 5 mg/kg, route oral
[5] = Plasma concentration in Sprague-Dawley rat at 5 mg/kg, po after 2 hrs by LC-MS/MS analysis; type: ADME, organism-based; design: dose 5 mg/kg, route oral
[6] = Plasma concentration in Sprague-Dawley rat at 5 mg/kg, po after 6 hrs by LC-MS/MS analysis; type: ADME, organism-based; design: dose 5 mg/kg, route oral

SMILES	solubility [1]	concentration at 4 h [2]	concentration at 4 h [3]	concentration at 1 h [4]	concentration at 2 h [5]	concentration at 6 h [6]
O=C(NCc1ccc(Cl)cc1Cl)N1CCC(Oc2ccccc2)CC1	3.4 µg/mL (≈ 8.96 µM)	100 nM	–	–	–	–
O=C(NCc1ccc(Cl)cc1Cl)N1CCC(Oc2ncccn2)CC1	174 µg/mL (≈ 456 µM)	1300 nM	–	–	–	–
O=C(Nc1ccc(OC(F)(F)F)cc1)N1CCC(n2cccc2)CC1	–	–	2800 nM	–	–	–
O=C(O)c1ccc(OC2CCN(C(=O)NCc3ccc(Cl)cc3Cl)CC2)cc1	–	3800 nM	–	1700 nM	2660 nM	5430 nM
